Data from PubChem BioAssay AID328 (DTP/NCI, 2004).
Where “and” joins values, the source holds several entries; their conditions need not be identical. Equal entries are not always repeated. Toxic doses and inconclusive results are not listed. The calls were made as follows: active = survival T/C of 150% or more; inactive = T/C below 125% in these data.

Test system: BDF1 mice, P388 leukemia ip, median survival T/C
Test: NCI In Vivo Anticancer Drug Screen. Data for tumor model P388 Leukemia (intraperitoneal) in B6D2F1 (BDF1) mice
Conditions: endpoint: median survival time, higher = longer survival
Procedure, shortened: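 In tumour-bearing mice, survival after compound treatment is set against the vehicle group and given as a quotient.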

[1] = dose: 3.12 mg/kg/injection, schedule: Q01DX009 (ip), vehicle: saline with Tween-80
[2] = dose: 6.25 mg/kg/injection, schedule: Q01DX009 (ip), vehicle: saline with Tween-80
[3] = dose: 50.0 mg/kg/injection, schedule: Q01DX009 (ip), vehicle: saline with Tween-80
[4] = dose: 100.0 mg/kg/injection, schedule: Q01DX009 (ip), vehicle: saline with Tween-80
[5] = dose: 200.0 mg/kg/injection, schedule: Q04DX003 (ip), vehicle: saline with Tween-80
[6] = dose: 200.0 mg/kg/injection, schedule: Q01DX009 (ip), vehicle: saline with Tween-80
[7] = dose: 400.0 mg/kg/injection, schedule: Q01DX009 (ip), vehicle: saline with Tween-80

Measured: T/C

CC1CC[N-]CC1.CC1CC[N-]CC1.[Br][Pt+2]([Br])([Br])[Br]
inactive: dose: 1.56 mg/kg/injection, schedule: Q01DX009 (ip), vehicle: saline with Tween-80 100 % of control | [1] 94 % of control | dose: 3.12 mg/kg/injection, schedule: Q04DX003 (ip), vehicle: saline with Tween-80 97 % of control | [2] 107 % of control | dose: 6.25 mg/kg/injection, schedule: Q04DX003 (ip), vehicle: saline with Tween-80 91 % of control and 108 % of control | dose: 12.5 mg/kg/injection, schedule: Q04DX003 (ip), vehicle: saline with Tween-80 100 % of control | dose: 25.0 mg/kg/injection, schedule: Q04DX003 (ip), vehicle: saline with Tween-80 117 % of control | dose: 50.0 mg/kg/injection, schedule: Q04DX003 (ip), vehicle: saline with Tween-80 91 % of control and 121 % of control

C1CC[N-]CC1.C1CC[N-]CC1.CS(C)=O.[Cl][Rh]([Cl])[Cl]
active: dose: 8.3 mg/kg/injection, schedule: Q01DX009 (ip), vehicle: saline 150 % of control | dose: 12.5 mg/kg/injection, schedule: Q01DX009 (ip), vehicle: saline 150 % of control and 155 % of control | dose: 18.7 mg/kg/injection, schedule: Q01DX009 (ip), vehicle: saline 150 % of control

[NH-]C(CC(N)=O)C(=O)O.[NH-]C(CC(N)=O)C(=O)O.[Ni+2] (centres undefined)
inactive: dose: 3.12 mg/kg/injection, schedule: Q01DX009 (ip), vehicle: water 88 % of control | dose: 6.25 mg/kg/injection, schedule: Q01DX009 (ip), vehicle: water 100 % of control | dose: 12.5 mg/kg/injection, schedule: Q01DX009 (ip), vehicle: water 94 % of control

CCOC(=O)NCCCCCCNC(=O)OCC
inactive: [3] 95 % of control | [4] 100 % of control | [5] 90 % of control

O=C1C(=O)c2ccccc2C(O)=C1CC=C(Cl)Cl
inactive: dose: 6.2 mg/kg/injection, schedule: Q01DX005 (ip), vehicle: water 100 % of control | dose: 12.5 mg/kg/injection, schedule: Q01DX001 (ip), vehicle: water 100 % of control | dose: 12.5 mg/kg/injection, schedule: Q01DX005 (ip), vehicle: water 100 % of control | dose: 12.5 mg/kg/injection, schedule: Q01DX010 (ip), vehicle: saline 100 % of control | dose: 12.5 mg/kg/injection, schedule: Q03HX024 (ip), vehicle: water 100 % of control | dose: 12.5 mg/kg/injection, schedule: Q04DX003 (ip), vehicle: water 100 % of control | dose: 12.5 mg/kg/injection, schedule: Q08DX002 (ip), vehicle: water 100 % of control | dose: 25.0 mg/kg/injection, schedule: Q01DX001 (ip), vehicle: water 108 % of control | dose: 25.0 mg/kg/injection, schedule: Q01DX005 (ip), vehicle: water 100 % of control | dose: 25.0 mg/kg/injection, schedule: Q01DX009 (ip), vehicle: water 100 % of control | dose: 25.0 mg/kg/injection, schedule: Q01DX009 (oral), vehicle: water 100 % of control | dose: 25.0 mg/kg/injection, schedule: Q01DX010 (ip), vehicle: saline 87 % of control | dose: 25.0 mg/kg/injection, schedule: Q03HX008 (ip), vehicle: water 100 % of control | dose: 25.0 mg/kg/injection, schedule: Q03HX016 (ip), vehicle: water 109 % of control | dose: 25.0 mg/kg/injection, schedule: Q03HX024 (ip), vehicle: water 100 % of control | dose: 25.0 mg/kg/injection, schedule: Q04DX003 (ip), vehicle: water 100 % of control | dose: 25.0 mg/kg/injection, schedule: Q08DX002 (ip), vehicle: water 109 % of control | dose: 50.0 mg/kg/injection, schedule: Q01DX001 (ip), vehicle: water 108 % of control | dose: 50.0 mg/kg/injection, schedule: Q01DX001 (oral), vehicle: water 108 % of control | dose: 50.0 mg/kg/injection, schedule: Q01DX005 (ip), vehicle: water 100 % of control | dose: 50.0 mg/kg/injection, schedule: Q01DX009 (oral), vehicle: water 100 % of control | dose: 50.0 mg/kg/injection, schedule: Q01DX010 (ip), vehicle: saline 91 % of control | dose: 50.0 mg/kg/injection, schedule: Q01DX010 (oral), vehicle: saline with Tween-80 104 % of control | dose: 50.0 mg/kg/injection, schedule: Q03HX008 (ip), vehicle: water 100 % of control | dose: 50.0 mg/kg/injection, schedule: Q03HX016 (ip), vehicle: water 100 % of control | dose: 50.0 mg/kg/injection, schedule: Q03HX024 (ip), vehicle: water 86 % of control | dose: 50.0 mg/kg/injection, schedule: Q04DX003 (ip), vehicle: water 100 % of control | dose: 50.0 mg/kg/injection, schedule: Q08DX002 (ip), vehicle: water 109 % of control | dose: 75.0 mg/kg/injection, schedule: Q01DX005 (ip), vehicle: water 108 % of control | dose: 75.0 mg/kg/injection, schedule: Q03HX024 (ip), vehicle: water 86 % of control | dose: 75.0 mg/kg/injection, schedule: Q04DX003 (ip), vehicle: water 100 % of control | dose: 100.0 mg/kg/injection, schedule: Q01DX001 (oral), vehicle: water 108 % of control | dose: 100.0 mg/kg/injection, schedule: Q01DX009 (oral), vehicle: water 86 % of control | dose: 100.0 mg/kg/injection, schedule: Q01DX010 (oral), vehicle: saline with Tween-80 108 % of control | dose: 100.0 mg/kg/injection, schedule: Q03HX008 (ip), vehicle: water 100 % of control | dose: 100.0 mg/kg/injection, schedule: Q03HX016 (ip), vehicle: water 100 % of control | dose: 100.0 mg/kg/injection, schedule: Q03HX024 (ip), vehicle: water 100 % of control | dose: 100.0 mg/kg/injection, schedule: Q08DX002 (ip), vehicle: water 109 % of control | dose: 200.0 mg/kg/injection, schedule: Q01DX001 (oral), vehicle: water 100 % of control | dose: 200.0 mg/kg/injection, schedule: Q03HX008 (ip), vehicle: water 109 % of control | dose: 200.0 mg/kg/injection, schedule: Q03HX016 (ip), vehicle: water 100 % of control | dose: 300.0 mg/kg/injection, schedule: Q01DX009 (oral), vehicle: water 91 % of control

c1cc[c]([Sn]([c]2ccccc2)([c]2ccccc2)[n]2cncn2)cc1
inactive: [1] 106 % of control | [2] 106 % of control

COC1CC(O)C(O)C(C)O1 (centres undefined)
inactive: [3] 97 % of control | dose: 50.0 mg/kg/injection, schedule: Q01DX009 (ip), vehicle: saline 100 % of control | [4] 95 % of control | dose: 100.0 mg/kg/injection, schedule: Q01DX009 (ip), vehicle: saline 107 % of control | dose: 100.0 mg/kg/injection, schedule: Q04DX003 (ip), vehicle: saline with Tween-80 106 % of control | [6] 100 % of control | dose: 200.0 mg/kg/injection, schedule: Q01DX009 (ip), vehicle: saline 118 % of control | [5] 101 % of control | [7] 95 % of control | dose: 400.0 mg/kg/injection, schedule: Q01DX009 (ip), vehicle: saline 99 % of control | dose: 400.0 mg/kg/injection, schedule: Q04DX003 (ip), vehicle: saline with Tween-80 99 % of control

Cc1ccc(Sc2ccccc2C(C)(C)O)cc1
inactive: [3] 101 % of control | [4] 101 % of control | [6] 95 % of control

CC(=O)N1c2cc3ccccc3cc2N(C(C)=O)c2cc3ccccc3cc21
inactive: [4] 102 % of control | [6] 97 % of control | [7] 117 % of control

O=[N+]([O-])/C=C\c1ccc2c(c1)OCO2
inactive: dose: 25.0 mg/kg/injection, schedule: Q01DX009 (ip), vehicle: Klucel (hydroxypropylcellulose) (HPC) 111 % of control and 120 % of control | dose: 35.0 mg/kg/injection, schedule: Q01DX009 (ip), vehicle: Klucel (hydroxypropylcellulose) (HPC) 105 % of control | dose: 75.0 mg/kg/injection, schedule: Q01DX009 (ip), vehicle: Klucel (hydroxypropylcellulose) (HPC) 95 % of control | dose: 100.0 mg/kg/injection, schedule: Q01DX009 (ip), vehicle: Klucel (hydroxypropylcellulose) (HPC) 100 % of control and 105 % of control | dose: 100.0 mg/kg/injection, schedule: Q04DX003 (ip), vehicle: Klucel (hydroxypropylcellulose) (HPC) 104 % of control | dose: 200.0 mg/kg/injection, schedule: Q04DX003 (ip), vehicle: Klucel (hydroxypropylcellulose) (HPC) 108 % of control
